Measured values from patent US11773113B2, “Crystal forms of crisaborole in free form and preparation method and use thereof” (Anacor Pharmaceuticals, Inc., priority 2016, dated 2023).
Values after ≈ are worked out from the molar mass of the structure shown.

How the values were obtained:
Format in all cases: physicochemical
[1] = Study of long-term and acceleration stabilities (XRPD); settings: both 25° C./60% RH and 40° C./75% RH, 3 months
[2] = Polarizing microscope (PLM) patterns; settings: from PLM patterns FIG. 29-31
[3] = Study of dynamic solubility (saturated solution, HPLC); settings: for Solubility assessment: FaSSIF, FeSSIF, SGF and water; for solubility at 1 h / solubility at 24 h / solubility at 4 h: thermodynamic from solid
Excerpt: The high performance liquid chromatography (HPLC) data were collected in an Agilent 1260, and the used detector was a diode array detector (DAD). The HPLC method as described in the invention has the following parameters: […]

[4] = Study of particle size distribution (PSD, laser particle size analytic meter); settings: for Particle size distribution (PSD pattern): from PSD patterns FIG. 26-28; for D10 / D50 (median size) / D90: volume distribution; for D10 / D50 (median size) / D90 / MV (average particle size as calculated in terms of the volume): dispersion medium Isopar G; for MV (average particle size as calculated in terms of the volume): wet process
Description: The particle size distribution (PSD) results as described in the invention were collected on a S3500-type laser particle size analytic meter as produced by Microtrac Company. The Microtrac S3500 is equipped with a SDC (Sample Delivery Controller) feeding system. The test was conducted via a wet process, and the dispersion medium as used in the test was Isopar G. The laser particle size analytic meter has the following parameters: [table]

[5] = Study of moisture absorption, dynamic vapor sorption (DVS) test; settings: for Moisture absorption characteristic according to Chinese Pharmacopoeia (2015): 25° C.±1° C.; for Moisture absorption characteristic according to Chinese Pharmacopoeia (2015) / Weight increase of 80% relative humidity: 80% relative humidity; for Weight increase of 80% relative humidity / Weight increase of 95% relative humidity: DVS, 25° C.
Description: The dynamic vapor sorption (DVS) pattern as described in the invention was collected on an intrinsic dynamic vapor sorption meter as produced by Surface Measurement Systems Ltd. The dynamic vapor sorption method has the following parameters: Temperature: 25° C., Loading gas, flowing speed: N2, 200 ml/min, Variation in mass per time: 0.002%/minute, Relative humidity range: 0% RH-95% RH. […] The obtained results were shown in Table 13: With regard to the descriptions for the moisture absorption characteristic and the definition for the increased weight of moisture absorption (Guidelines for the Moisture Absorption Tests of Drugs in the Appendix of Chinese Pharmacopoeia (2015), Experimental conditions: 25° C.±1° C., 80% relative humidity): […]

[6] = Study of mechanical stability (ground by hand for 5 minutes, XRPD); settings: ground for 5 minutes by hand in a mortar

| SMILES | Stability of the crystal form on storage [1] | Particle sizes of the particles (PLM pattern) [2] | Solubility ([3]; FaSSIF (pH = 6.5), 1 h) | Solubility ([3]; FaSSIF (pH = 6.5), 4 h) | Solubility ([3]; FaSSIF (pH = 6.5), 24 h) | Solubility assessment [3] | Solubility ([3]; FeSSIF (pH = 5.0), 1 h) | Solubility ([3]; FeSSIF (pH = 5.0), 4 h) | Solubility ([3]; FeSSIF (pH = 5.0), 24 h) | Solubility ([3]; H2O, 4 h) | Solubility ([3]; H2O, 24 h) | Solubility ([3]; SGF (pH = 1.8), 1 h) | Solubility ([3]; SGF (pH = 1.8), 4 h) | Solubility ([3]; SGF (pH = 1.8), 24 h) | D10 [4] | D50 (median size) [4] | D90 [4] | MV (average particle size as calculated in terms of the volume) [4] | Weight increase of 80% relative humidity [5] | Weight increase of 95% relative humidity [5] | other results |
| --- | --- | --- | --- | --- | --- | --- | --- | --- | --- | --- | --- | --- | --- | --- | --- | --- | --- | --- | --- | --- | --- |
| N#Cc1ccc(Oc2ccc3c(c2)COB3O)cc1 [Crystal form II, 4-[(1,3-dihydro-1-hydroxyl-2,1-benzoxaborolane-5-yl)oxy]benzonitrile] | maintain their stability | homogeneous | 11 µg/mL (≈ 43.8 µM) | 5 µg/mL (≈ 19.9 µM) | 8 µg/mL (≈ 31.9 µM) | in line with medicinal requirements | 18 µg/mL (≈ 71.7 µM) | 49 µg/mL (≈ 195 µM) | 55 µg/mL (≈ 219 µM) | 1 µg/mL (≈ 3.98 µM) | 6 µg/mL (≈ 23.9 µM) | 10 µg/mL (≈ 39.8 µM) | 26 µg/mL (≈ 104 µM) | 15 µg/mL (≈ 59.7 µM) | 8.24 μm | 20.46 μm | 40.42 μm | 23.13 μm | 0.13% | 0.32% | Solubility ([3]; H2O, 1 h): 3 µg/mL (≈ 11.9 µM); Particle size distribution (PSD pattern) [4]: homogeneous; Moisture absorption characteristic according to Chinese Pharmacopoeia (2015) [5]: almost have no moisture absorption |
| N#Cc1ccc(Oc2ccc3c(c2)COB3O)cc1 [Crystal form IV, 4-[(1,3-dihydro-1-hydroxyl-2,1-benzoxaborolane-5-yl)oxy]benzonitrile] | – | homogeneous | 9 µg/mL (≈ 35.8 µM) | 17 µg/mL (≈ 67.7 µM) | 13 µg/mL (≈ 51.8 µM) | in line with medicinal requirements | 62 µg/mL (≈ 247 µM) | 61 µg/mL (≈ 243 µM) | 56 µg/mL (≈ 223 µM) | 6 µg/mL (≈ 23.9 µM) | 4 µg/mL (≈ 15.9 µM) | 31 µg/mL (≈ 123 µM) | 27 µg/mL (≈ 108 µM) | 26 µg/mL (≈ 104 µM) | 13.43 μm | 33.68 μm | 99.36 μm | 52.95 μm | 1.53% | 4.90% | Particle size distribution (PSD pattern) [4]: homogeneous; Moisture absorption characteristic according to Chinese Pharmacopoeia (2015) ([5]; listed as crystal IV): slight moisture absorption; Final crystal form [6]: Crystal form IV; Final crystal form ([6]; listed as crystal form IV): not changed |
| N#Cc1ccc(Oc2ccc3c(c2)COB3O)cc1 [Crystal form III, 4-[(1,3-dihydro-1-hydroxyl-2,1-benzoxaborolane-5-yl)oxy]benzonitrile] | maintain their stability | – | 8 µg/mL (≈ 31.9 µM) | 10 µg/mL (≈ 39.8 µM) | 12 µg/mL (≈ 47.8 µM) | in line with medicinal requirements | 25 µg/mL (≈ 99.6 µM) | 67 µg/mL (≈ 267 µM) | 74 µg/mL (≈ 295 µM) | 4 µg/mL (≈ 15.9 µM) | 6 µg/mL (≈ 23.9 µM) | 33 µg/mL (≈ 131 µM) | 34 µg/mL (≈ 135 µM) | 40 µg/mL (≈ 159 µM) | 21.68 μm | 163.0 μm | 903.1 μm | 289.0 μm | 0.09% | 0.15% | Solubility ([3]; H2O, 1 h): 5 µg/mL (≈ 19.9 µM); Moisture absorption characteristic according to Chinese Pharmacopoeia (2015) [5]: almost have no moisture absorption |
| N#Cc1ccc(Oc2ccc3c(c2)COB3O)cc1 [Crystal form I, 4-[(1,3-dihydro-1-hydroxyl-2,1-benzoxaborolane-5-yl)oxy]benzonitrile] | maintain their stability | homogeneous | – | 7 µg/mL (≈ 27.9 µM) | – | in line with medicinal requirements | 44 µg/mL (≈ 175 µM) | – | – | 5 µg/mL (≈ 19.9 µM) | – | 11 µg/mL (≈ 43.8 µM) | – | 38 µg/mL (≈ 151 µM) | 1.69 μm | 5.52 μm | 20.35 μm | 9.62 μm | 0.14% | 0.32% | solubility at 1 h ([3]; fasted state simulated intestinal fluid (FaSSIF), pH 6.5, fassif, FaSSIF (pH = 6.5), 1 h): 6 µg/mL (≈ 23.9 µM); solubility at 24 h ([3]; fasted state simulated intestinal fluid (FaSSIF), pH 6.5, fassif, FaSSIF (pH = 6.5), 24 h): 12 µg/mL (≈ 47.8 µM); solubility at 4 h ([3]; fed state simulated intestinal fluid (FeSSIF), pH 5, fessif, FeSSIF (pH = 5.0), 4 h): 59 µg/mL (≈ 235 µM); solubility at 24 h ([3]; fed state simulated intestinal fluid (FeSSIF), pH 5, fessif, FeSSIF (pH = 5.0), 24 h): 59 µg/mL (≈ 235 µM); solubility at 4 h ([3]; simulated gastric fluid (SGF), pH 1.8, simulated gastric fluid, SGF (pH = 1.8), 4 h): 37 µg/mL (≈ 147 µM); solubility at 1 h ([3]; water, H2O, 1 h): 4 µg/mL (≈ 15.9 µM); solubility at 24 h ([3]; water, H2O, 24 h): 6 µg/mL (≈ 23.9 µM); Particle size distribution (PSD pattern) [4]: homogeneous; Moisture absorption characteristic according to Chinese Pharmacopoeia (2015) [5]: almost have no moisture absorption; Final crystal form [6]: Crystal form I; Final crystal form ([6]; listed as crystal form I): not changed |
